Entries after “also recorded” stand apart in the source; their conditions may differ.
How the values were obtained:
Format in all cases: cell-based
[1] = tested on: MCF-7 breast cancer cells; experiment: growth of MCF-7 breast cancer cells (cell counting); conditions: 10 μg/mL for 48 hours; number of cells counted; FIG. 15
estrogen receptor ERα = target: T1, estrogen receptor ERα (Homo sapiens, UniProt P03372); experiment: human ERα reporter assay (ERE-luc, Indigo Bioscience #IB00421-48P); conditions: for activity of ERα: Test Example 3, same manner as Test Example 1, FIG. 16; for increase of the activity of the estrogen receptor ERα: Test Example 1, 10 μg/mL for 24 hours, FIG. 11, FIG. 14
T1 sequence (P03372 1-595): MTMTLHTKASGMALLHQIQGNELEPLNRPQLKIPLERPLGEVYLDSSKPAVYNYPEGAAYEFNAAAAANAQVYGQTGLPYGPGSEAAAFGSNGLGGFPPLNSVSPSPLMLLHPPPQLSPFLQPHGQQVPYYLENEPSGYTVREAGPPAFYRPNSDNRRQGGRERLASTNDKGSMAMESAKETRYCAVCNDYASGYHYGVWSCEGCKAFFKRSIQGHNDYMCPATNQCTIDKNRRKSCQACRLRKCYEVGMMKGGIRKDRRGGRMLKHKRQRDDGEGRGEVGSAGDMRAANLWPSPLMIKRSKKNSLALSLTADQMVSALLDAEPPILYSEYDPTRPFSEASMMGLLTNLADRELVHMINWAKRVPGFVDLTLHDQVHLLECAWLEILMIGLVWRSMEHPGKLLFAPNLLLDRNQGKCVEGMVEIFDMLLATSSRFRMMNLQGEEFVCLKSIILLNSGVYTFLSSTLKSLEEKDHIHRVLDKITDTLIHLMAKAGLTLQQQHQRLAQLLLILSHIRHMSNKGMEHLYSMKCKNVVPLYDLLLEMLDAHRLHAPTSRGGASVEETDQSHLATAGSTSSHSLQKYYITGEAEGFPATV
Procedure: (§1) After treating each of the novel ginsenoside GS #10 according to an exemplary embodiment of the present disclosure and other ginsenosides GS #01 to GS #06 isolated from the ginseng seed extract with a human ERα/β reporter assay panel (#IB00421-48P; Indigo Bioscience) at a concentration of 10 μg/mL for 24 hours, the increase of the activity of the estrogen receptors ERα and ERβ was analyzed. The #IB00421-48P kit comprises cells in which ERα and ERβ are overexpressed, respectively, and comprises the ERE-luc reporter gene. If the activity of the ER is increased by treating with the example or a comparative example, ERα and ERβ bind to ERE, thereby inducing the expression of luciferase. Therefore, the activity of ERα and ERβ can be measured by measuring the light intensity of the cells. As the comparative example, a methanol extract of ginseng seed (seeds of Panax ginseng) used for the isolation of the ginsenosides in Example 1 was used.
(§2) It is reported that, although the increased activity of the estrogen receptors ERα and ERβ can lead to alleviation of menopausal symptoms, ERs are overexpressed in more than 70% of breast cancer cells, mainly due to increased ERα (ESR1) (see Deroo B J et al., J Clin Invest 116:561 (2006)).
(§3) The effect of preventing or improving menopausal symptoms of the novel ginsenoside […] according to an exemplary embodiment of the present disclosure was compared with that of ginsenosides Rg1, Rg3 and Rb1 (purchased from Sigma), which are red ginseng marker compounds, as comparative examples. Ginsenoside Rg3 has the following chemical structure. The experiment was performed in the same manner as in Test Example 1.

estrogen receptor ERβ = estrogen receptor ERβ (Homo sapiens, UniProt Q92731); experiment: human ERβ reporter assay (ERE-luc, Indigo Bioscience #IB00421-48P); conditions: for activity of ERβ: same manner as Test Example 1
Procedure: as §1, §2, §3

SH-SY5Y cells = experiment: cytotoxicity, cell counting kit (CCK-8); conditions: 0.1, 1, 5, 10, 20 and 50 μM, FIG. 18
Procedure: Cell growth in the presence of the novel ginsenoside GS #10 according to an exemplary embodiment of the present disclosure was evaluated using a cell counting kit (CCK-8) in order to exclude the possibility that the ginsenoside may affect the effect of preventing or improving menopausal symptoms through cytotoxic activity. The experimental method is as follows.
10 μL of a CCK-8 reagent was added to SH-SY5Y cells (Dojindo, Md., USA) in a 96-well plate and left at 37° C. for 2 hours. Then, absorbance was measured at 450 nm. Cell viability was represented as the percentage (%) of the absolute optical density of each sample relative to an untreated sample. The concentration of the novel ginsenoside GS #10 according to an exemplary embodiment of the present disclosure in the medium in which the cells were cultured was 0.1, 1, 5, 10, 20 and 50 μM, respectively.

Sequence of estrogen receptor ERβ (Q92731 whole entry): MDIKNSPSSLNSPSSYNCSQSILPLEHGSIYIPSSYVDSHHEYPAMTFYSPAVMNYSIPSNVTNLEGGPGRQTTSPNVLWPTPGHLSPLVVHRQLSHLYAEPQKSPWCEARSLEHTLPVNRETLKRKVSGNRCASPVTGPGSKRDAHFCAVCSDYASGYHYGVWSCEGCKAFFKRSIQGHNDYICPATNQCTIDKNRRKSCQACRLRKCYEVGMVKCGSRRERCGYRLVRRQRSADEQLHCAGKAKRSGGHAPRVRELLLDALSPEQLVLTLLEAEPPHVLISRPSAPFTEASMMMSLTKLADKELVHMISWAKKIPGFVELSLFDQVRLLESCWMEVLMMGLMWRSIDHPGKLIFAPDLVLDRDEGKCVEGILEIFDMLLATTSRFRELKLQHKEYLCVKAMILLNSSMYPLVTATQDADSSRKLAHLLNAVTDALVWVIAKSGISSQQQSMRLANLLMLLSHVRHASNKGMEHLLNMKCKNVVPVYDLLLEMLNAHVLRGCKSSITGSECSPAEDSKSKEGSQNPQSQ

| SMILES | growth of MCF-7 breast cancer cells (side effect of promoting cancer cell growth) [1] | activity of ERα (estrogen receptor ERα) | increase of the activity of the estrogen receptor ERα (estrogen receptor ERα) | activity of ERβ (estrogen receptor ERβ; Test Example 3, FIG. 17) | also measured |
| --- | --- | --- | --- | --- | --- |
| C[C@]12CC[C@@H]3c4ccc(O)cc4CC[C@H]3[C@@H]1CC[C@@H]2O [17β-estradiol, 17β-Estradiol, reference compound] | promoted the growth of the breast cancer cells |  |  |  |  |
| CC(C)=CCC[C@](C)(O[C@@H]1O[C@H](CO)[C@@H](O)[C@H](O)[C@H]1O)[C@H]1CC[C@]2(C)[C@@H]1[C@H](O)C[C@@H]1[C@@]3(C)CC[C@H](O)C(C)(C)[C@@H]3[C@@H](O[C@@H]3O[C@H](CO)[C@@H](O)[C@H](O)[C@H]3O)C[C@]12C [GS #01, ginsenoside Rg1] |  | activated the estrogen receptors to some extent |  |  |  |
| CC(C)=CCC[C@](C)(O[C@@H]1O[C@H](CO)[C@@H](O)[C@H](O)[C@H]1O)[C@H]1CC[C@]2(C)[C@@H]1[C@H](O)C[C@@H]1[C@@]3(C)CC[C@H](O)C(C)(C)[C@@H]3[C@@H](O[C@@H]3O[C@H](CO)[C@@H](O)[C@H](O)[C@H]3O[C@@H]3O[C@@H](C)[C@H](O)[C@@H](O)[C@H]3O)C[C@]12C [GS #03, ginsenoside Re] |  |  | slightly increased the activity of ERα |  |  |
| CC(C)=CCC[C@](C)(O[C@@H]1O[C@H](CO[C@@H]2O[C@H](CO)[C@@H](O)[C@H](O)[C@H]2O)[C@@H](O)[C@H](O)[C@H]1O)[C@H]1CC[C@]2(C)[C@@H]1[C@H](O)C[C@@H]1[C@@]3(C)CC[C@H](O[C@@H]4O[C@H](CO)[C@@H](O)[C@H](O)[C@H]4O[C@@H]4O[C@H](CO)[C@@H](O)[C@H](O)[C@H]4O)C(C)(C)[C@@H]3CC[C@]12C [GS #05, ginsenoside Rb1] |  | activated the estrogen receptors to some extent | slightly increased the activity of ERα |  |  |
| CC1(C)C(=O)CC[C@@]2(C)C1[C@@H](O[C@H]1OC(CO)[C@H](O)C(O)C1O[C@H]1OC(CO)[C@H](O)C(O)C1O)C[C@]1(C)C2C[C@@H](O)C2C([C@]3(C)CC[C@H](C(C)(C)O)O3)CC[C@]21C (stereo partly drawn) [GS #10, (20S,24R)-6-O-β-D-glucopyranosyl(1→2)-β-D-glucopyranoside-dammar-3-one-20,24-epoxy-6a,12b,25-triol] | did not show such a side effect | not higher than Rg1 and Rb1 | slightly increased the activity of ERα; also recorded: had an effect of increasing the activity | 136% | increase of the activity of the estrogen receptor ERβ (estrogen receptor ERβ; Test Example 1, 10 μg/mL for 24 hours, FIG. 12, FIG. 14): activated ERβ; also recorded: had an effect of increasing the activity; activity ratio of ERβ to ERα compared with red ginseng marker compounds (estrogen receptor ERβ; Test Example 3, FIG. 16 and FIG. 17): higher than the ginsenosides Rb1, Rg1 and Rg3; activity of ERβ as compared to the ginsenosides Rg1 and Rb1 (estrogen receptor ERβ; Test Example 3, FIG. 17): at least 3 times; cytotoxicity (cell viability) (SH-SY5Y cells): did not exhibit cytotoxicity up to 50 μM |
| CC(C)=CCC[C@](C)(O)[C@H]1CC[C@]2(C)[C@@H]1[C@H](O)C[C@@H]1[C@@]3(C)CC[C@H](O[C@@H]4O[C@H](CO)[C@@H](O)[C@H](O)[C@H]4O[C@@H]4O[C@H](CO)[C@@H](O)[C@H](O)[C@H]4O)C(C)(C)[C@@H]3CC[C@]12C [Rg3, Ginsenoside Rg3, reference compound] |  | activated the estrogen receptors to some extent |  | activated the estrogen receptors to some extent |  |

From US11633413B2, “Composition for preventing or improving menopausal symptom comprising novel ginsenoside” (AMOREPACIFIC CORPORATION, priority 2019, dated 2023)
